Data set [1] addresses human MCH-1 receptor (Homo sapiens (Human), UniProt Q99705). The data set can be described thus: Binding assay for human melanin-concentrating hormone (MCH1) receptor. The settings on record: membranes from CHO-K1 cells expressing human MCH1 receptor; 1.4 nM [3H]-labeled radioligand, 60 min at 25° C., pH 7.4; Ki from Cheng Prusoff equation.

human MCH-1 receptor, sequence (Q99705 whole entry): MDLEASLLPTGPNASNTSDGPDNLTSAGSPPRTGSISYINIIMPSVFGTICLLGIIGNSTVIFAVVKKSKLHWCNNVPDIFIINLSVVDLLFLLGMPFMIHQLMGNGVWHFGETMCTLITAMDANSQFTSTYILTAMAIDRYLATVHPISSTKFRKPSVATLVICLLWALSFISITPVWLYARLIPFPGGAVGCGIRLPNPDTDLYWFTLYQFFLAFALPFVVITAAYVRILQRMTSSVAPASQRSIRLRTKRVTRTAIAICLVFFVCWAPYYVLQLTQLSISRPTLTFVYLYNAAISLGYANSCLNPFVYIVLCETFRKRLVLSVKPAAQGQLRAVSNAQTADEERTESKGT

A word on the melting point: it is the temperature, or range, at which the solid turns liquid. Usually Ki stands for the dissociation constant of the complex between target and ligand, obtained from inhibition or displacement. A high value points to weaker binding. As to `Cl.Cn1c2c(c3ccc(-n4ccc(-c5ccc(C(F)(F)F)cn5)cc4=O)cc31)CCN1CCCCC21` (stereo not drawn) [Example 6, 1-(12-Methyl-1,2,3,4,6,7,12,12b-octahydroindolo[2,3-a]quinolizin-10-yl)-4-(5-(trifluoromethyl)pyridin-2-yl)pyridin-2(1H)-one Hydrochloride], the melting point is 280 to 284 °C. Besides, the inhibitory constant (Ki) in data set [1] is 481 nM.
Consider `Cl.Cn1c2c(c3ccc(-n4ccc(-c5ccc(C(F)(F)F)nc5)cc4=O)nc31)CN1CCCC1C2` (stereo not drawn) [Example 53, 1-(11-Methyl-5,7,8,9,9a,10-hexahydro-11H-pyrido[3′,2′:4,5]pyrrolo[3,2-f]indolizin-2-yl)-4-(6-(trifluoromethyl)pyridin-3-yl)pyridin-2(1H)-one Hydrochloride], for which the melting point is 280 to 290 °C. In data set [1], this compound came in with an inhibitory constant (Ki) of 33 nM.
`Cl.O=c1cc(OCc2ccccc2)ccn1-c1ccc2c3c([nH]c2c1)CC1CCCCN1C3` (stereo not drawn) [Example 29, 4-(Benzyloxy)-1-(5,6,6a,7,8,9,10,12-octahydroindolo[2,3-b]quinolizin-3-yl)-pyridin-2(1H)-one Hydrochloride] had a melting point of 270 to 273 °C. The compound also returned an inhibition constant Ki in data set [1] of 8.5 nM.

For the origin of these results see patent US8618299B2, “Azinone-substituted azapolycycle MCH-1 antagonists, methods of making, and use thereof” (Albany Molecular Research, Inc., priority 2009, dated 2013).
